{
  "source": "paper PMC5465257",
  "about": "“Evaluation of JNJ-54717793 a Novel Brain Penetrant Selective Orexin 1 Receptor Antagonist in Two Rat Models of Panic Attack Provocation” (Frontiers in Pharmacology, 2017)",
  "origin": "cited, not measured here",
  "key": {"GABA synthesis": {"test_system": "GABA synthesis", "design": "method as in earlier work", "conditions": "3.5 nmol/0.5 μl per hour, unilateral infusions; ref Shekhar and DiMicco, 1987; Abshire et al., 1988; Shekhar et al., 1996, 2006; Shekhar and Keim, 1997; cited from earlier work"}, "[1]": {"design": "method as in Beig et al., 2015a", "conditions": "systemic administration; ref Beig et al., 2015a; cited from earlier work"}, "Sprague-Dawley rats": {"test_system": "Sprague-Dawley rats", "design": "method as in Bonaventure et al., 2015b; Johnson et al., 2015", "conditions": "20% CO2 model, ref Bonaventure et al., 2015b, Johnson et al.; cited from earlier work"}, "[2]": {"design": "method as in Furlong et al., 2009", "conditions": "ref Furlong et al., 2009; cited from earlier work"}},
  "data": [
    {"smiles": "C=CC[C@H](N)C(=O)O", "note": "[1-allyglycine]", "values": [
      {"measurement": "reduction of local GABA concentrations", "setting": "GABA synthesis", "value": "approximately 60%"}
    ]},
    {"smiles": "COc1ccc(C[C@H]2c3cc(OC)c(OC)cc3CCN2[C@@H](C(=O)NC(C)C)c2ccccc2)cc1OC", "note": "[ACT335827]", "values": [
      {"measurement": "novelty stress (cage changes) induced cardioexcitation", "setting": "[1]", "value": "attenuates"}
    ]},
    {"smiles": "CCN(Cc1cccnc1)C(=O)CN(c1ccc(OC)nc1)S(=O)(=O)c1ccccc1C", "note": "[EMPA, N-ethyl-2-[(6-methoxy-pyridin-3-yl)-(toluene-2-sulfonyl)-amino]-N-pyridin-3-ylmethyl-acetamide]", "values": [
      {"measurement": "novelty stress (cage changes) induced cardioexcitation", "setting": "[1]", "value": "attenuates"}
    ]},
    {"smiles": "CC1(C)OC[C@H](NC(=O)Nc2ccc(Br)cc2Br)[C@H](c2ccccc2)O1", "note": "[JNJ-10397049]", "values": [
      {"measurement": "panic responses to 20% CO2", "setting": "Sprague-Dawley rats", "value": "did not alter"}
    ]},
    {"smiles": "CNC(=O)[C@@H](c1ccccc1)N1CCc2cc(OC)c(OC)cc2[C@@H]1CCc1ccc(C(F)(F)F)cc1", "note": "[almorexant]", "values": [
      {"measurement": "locomotor and cardiovascular responses to exploration and footshock", "setting": "[2]", "value": "attenuated"}
    ]}
  ]
}
